The values below come from patent US10738051B2, “β-lactamase inhibitors” (priority 2016, dated 2020).

Where only a bound is given, the exact number is not on record here.

Assay [1] relates to E. coli ATCC BAA-2523 (OXA-48). The assay can be described thus: In vitro synergistic inhibitory concentration (SIC) assay. To be noted: Escherichia coli, ATCCBAA2523, 37° C. 20 hours, read-out: minimum inhibitory concentration, used alone. It counts as cell-based. Here is the method: (§1) 2) 30 μL dimethyl sulfoxide was added to columns 2-12 of the 96-V well plate. 60 μL prepared ceftazidime was added to column 1. 30 μL ceftazidime was transferred from column 1 to column 2 and mixed with a pipette. The same operation was continued until column 11, and 30 μL of the mixture in column 11 was discarded. This was the compound mother plate.
(§2) Mix the liquid in the mother plate with a pipette.
(§3) 4) One day before the experiment, the bacterial glycerol stock which was stored in a −80° C. refrigerator was streaked on a trypticase soy agar plate (TSA), and the plate was incubated in a 37° C. incubator overnight. On the day of the experiment, the monoclonal bacterial was suspended in physiological saline and the turbidity of which was adjusted to 0.5 McFarland standard, corresponding to 1×10^8 CFU/ml. This suspension was diluted 100-fold to 1×10^6 CFU/mL with caton-adjusted Mueller-Hnton broth (CAMHB), which was used as an inoculation fluid.
(§4) 5) a 96-U plate was used as a test plate. Firstly, adding 98 μL CAMHB to each well of the test plate and transferring 2 μL solution in the mother plate to the test plate. 100 μL inoculation fluid was added to each well of the test plate.
(§5) 6) The test plate was incubated at 37° C. for 20 hours.
(§6) The above-mentioned method was also used to determine the antibacterial activity of the test compound or the antibiotic when used alone.

For assay [2], the system named is K. pneumoniae ATCC 51503 (TEM-10/12). The description is as above. It counts as cell-based. To be noted: Klebsiella pneumoniae, ATCC51503, 37° C. 20 hours, read-out: minimum inhibitory concentration, used alone. The procedure:
as §1, §2, §3, §4, §5, §6

The test system of assay [3] is K. pneumoniae ATCC BAA-1144 (AmpC). Described as above. The conditions noted are these: Klebsiella pneumoniae, ATCCBAA1144, 37° C. 20 hours, read-out: minimum inhibitory concentration, used alone. It counts as cell-based. The procedure: as §1, §2, §3, §4, §5, §6
For assay [4], the system named is K. pneumoniae ATCC BAA-1705 (KPC). The description is as above. The format is cell-based. The conditions noted are these: Klebsiella pneumoniae, ATCCBAA1705, 37° C. 20 hours, read-out: minimum inhibitory concentration, used alone. Here is the method: as §1, §2, §3, §4, §5, §6
Assay [5] deals with K. pneumoniae ATCC BAA-1898 (KPC). The assay is described as above. The format is cell-based. To be noted: Klebsiella pneumoniae, ATCCBAA1898, 37° C. 20 hours, read-out: minimum inhibitory concentration, used alone. Here is the method: as §1, §2, §3, §4, §5, §6
The test system of assay [6] is K. pneumoniae ATCC BAA-1899 (KPC). Described as above. The format is cell-based. The conditions noted are these: Klebsiella pneumoniae, ATCCBAA1899, 37° C. 20 hours, read-out: minimum inhibitory concentration, used alone. Here is the method:
as §1, §2, §3, §4, §5, §6

The subject of assay [7] is K. pneumoniae ATCC BAA-205 (TEM-1/SHV-1/SHV-12). The description is as above. The format is cell-based. The conditions noted are these: Klebsiella pneumoniae, ATCCBAA205, 37° C. 20 hours, read-out: minimum inhibitory concentration, used alone. Here is the method: as §1, §2, §3, §4, §5, §6
In assay [8] the test system is K. pneumoniae ATCC BAA-2470 (NDM-1). Described as above. It counts as cell-based. To be noted: Klebsiella pneumoniae, ATCCBAA2470, 37° C. 20 hours, read-out: minimum inhibitory concentration, used alone. The procedure: as §1, §2, §3, §4, §5, §6
The test system of assay [9] is K. pneumoniae ATCC BAA-2472 (NDM-1). Described as above. The format is cell-based. To be noted: Klebsiella pneumoniae, ATCCBAA2472, 37° C. 20 hours, read-out: minimum inhibitory concentration, used alone. The procedure:
as §1, §2, §3, §4, §5, §6

The test system of assay [10] is K. pneumoniae ATCC BAA-2524 (OXA-48). The assay is described as above. It counts as cell-based. The conditions noted are these: Klebsiella pneumoniae, ATCCBAA2524, 37° C. 20 hours, read-out: minimum inhibitory concentration, used alone. The procedure:
as §1, §2, §3, §4, §5, §6

Assay [11] concerns K. pneumoniae ATCC-700603 (SHV-18). The description is as above. The conditions noted are these: Klebsiella pneumoniae, ATCC700603, 37° C. 20 hours, read-out: minimum inhibitory concentration, used alone. The format is cell-based. The procedure: as §1, §2, §3, §4, §5, §6
The target in assay [12] is AmpC-EC (Class C) β-lactamase (UniProt P05364). The experiment in a line: In vitro enzymatic assay (Nitrocefin). It counts as biochemical. To be noted: Nitrocefin 0.1 mM, 1 × PBS pH 7.4, 0.1 mg/mL BSA, read-out: IC50, inhibitory activity on β-lactamase. Here is the method:
(§7) 2) Prepare buffer solution A (1×PBS, pH 7.4, 0.1 mg/mL BSA) for enzymatic assay;
(§8) 3) The compound mother liquor was 4-fold serial diluted for 11 times with DMSO in a 96-well tip-bottom plate, which was used as a working solution. A 96-well flat bottom plate was used as a test plate, the corresponding reaction buffer was previously added to each well, followed by addition of a corresponding volume of the working solution (100 μM-0.095 nM and 0 nM). Wherein, EDTA-Na2 was used as a control for the NDM-1 test at a concentration of 20 mM;
(§9) 4) adding the corresponding β-lactamase, and the test plate was incubated at 37° C. for 5 minutes;
(§10) 5) Adding 5 μL Nitrocefin (the final reaction volume was 100 μL), the absorbance OD490 of the reaction solution in the plate was measured by a microplate reader and the result was recorded, the absorbance was measured every minute over 30 minutes;
(§11) 6) The microplate reader could give a curve of OD490 over time. The slope of the curve (Abs2−Abs1)/(T2−T1) was calculated by taking two data points Abs1 and Abs2 within the linear range of the curve.
(§12) 7) The relative inhibition rate was calculated as follows: Slope (EC) was calculated under the condition of absence of an inhibitor, and Slop(S) was calculated under the condition of an inhibitor at a certain concentration.
(§13) The relative inhibition rate and the corresponding concentration of the inhibitor were used to calculate the IC50 value of the inhibitor on β-lactamase. In this experiment, the IC50 was calculated using the formula of GraphPad Prism 5.0, log(inhibitor) vs. normalized response-Variable slope.

Assay [13] has as its target AmpC-PA (Class C) β-lactamase (Pseudomonas aeruginosa, UniProt P24735). The experiment in a line: In vitro enzymatic assay (Nitrocefin). It counts as biochemical. Here is the method:
as §7, §8, §9, §10, §11, §12, §13

In assay [14] the target is CTX-M-44 (Class C) β-lactamase (Escherichia coli, UniProt Q47066). The assay can be described thus: In vitro enzymatic assay (Nitrocefin). The format is biochemical. The procedure:
as §7, §8, §9, §10, §11, §12, §13

Assay [15] addresses KPC (Class A) β-lactamase (Klebsiella pneumoniae, UniProt Q9F663). The assay can be described thus: In vitro enzymatic assay (Nitrocefin). The format is biochemical. The procedure:
as §7, §8, §9, §10, §11, §12, §13

For assay [16], the target named is OXA-2 (Class D) β-lactamase (Escherichia coli, UniProt P0A1V9). The assay can be described thus: In vitro enzymatic assay (Nitrocefin). It counts as biochemical. Here is the method:
as §7, §8, §9, §10, §11, §12, §13

Assay [17] deals with OXA-9 (Class D) β-lactamase (Klebsiella pneumoniae, UniProt P0A3M3). The assay can be described thus: In vitro enzymatic assay (Nitrocefin). The format is biochemical. The procedure: as §7, §8, §9, §10, §11, §12, §13
OXA-9 (Class D) β-lactamase, sequence (P0A3M3 25-274): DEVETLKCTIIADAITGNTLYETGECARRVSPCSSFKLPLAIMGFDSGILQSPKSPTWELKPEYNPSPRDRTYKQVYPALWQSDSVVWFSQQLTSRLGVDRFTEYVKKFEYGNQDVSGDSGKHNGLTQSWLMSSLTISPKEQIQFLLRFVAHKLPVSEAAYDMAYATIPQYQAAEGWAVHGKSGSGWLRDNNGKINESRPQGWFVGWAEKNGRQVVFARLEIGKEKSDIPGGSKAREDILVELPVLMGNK
Assay [18] deals with TEM-1 (Class A) β-lactamase (Escherichia coli, UniProt P62593). The experiment in a line: In vitro enzymatic assay (Nitrocefin). It counts as biochemical. The conditions noted are these: Nitrocefin 0.1 mM, 1 × PBS pH 7.4, 0.1 mg/mL BSA, read-out: IC50, inhibitory activity on β-lactamase. Here is the method:
as §7, §8, §9, §10, §11, §12, §13

TEM-1 (Class A) β-lactamase, sequence (P62593 24-286 limits assumed): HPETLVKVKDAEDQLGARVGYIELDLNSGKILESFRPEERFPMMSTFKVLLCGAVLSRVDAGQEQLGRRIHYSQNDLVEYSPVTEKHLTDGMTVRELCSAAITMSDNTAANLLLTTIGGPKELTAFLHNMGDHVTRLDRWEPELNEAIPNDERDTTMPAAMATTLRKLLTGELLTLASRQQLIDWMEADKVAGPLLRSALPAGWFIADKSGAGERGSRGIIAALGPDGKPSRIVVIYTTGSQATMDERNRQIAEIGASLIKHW
CTX-M-44 (Class C) β-lactamase, sequence (Q47066 30-291): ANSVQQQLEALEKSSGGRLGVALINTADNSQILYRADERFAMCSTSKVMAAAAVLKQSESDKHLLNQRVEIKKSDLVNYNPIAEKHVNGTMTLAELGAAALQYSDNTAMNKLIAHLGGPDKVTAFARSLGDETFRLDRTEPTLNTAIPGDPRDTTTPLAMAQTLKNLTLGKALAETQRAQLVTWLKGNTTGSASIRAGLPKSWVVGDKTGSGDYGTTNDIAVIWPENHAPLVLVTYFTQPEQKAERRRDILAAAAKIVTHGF
AmpC-PA (Class C) β-lactamase, sequence (P24735 27-397): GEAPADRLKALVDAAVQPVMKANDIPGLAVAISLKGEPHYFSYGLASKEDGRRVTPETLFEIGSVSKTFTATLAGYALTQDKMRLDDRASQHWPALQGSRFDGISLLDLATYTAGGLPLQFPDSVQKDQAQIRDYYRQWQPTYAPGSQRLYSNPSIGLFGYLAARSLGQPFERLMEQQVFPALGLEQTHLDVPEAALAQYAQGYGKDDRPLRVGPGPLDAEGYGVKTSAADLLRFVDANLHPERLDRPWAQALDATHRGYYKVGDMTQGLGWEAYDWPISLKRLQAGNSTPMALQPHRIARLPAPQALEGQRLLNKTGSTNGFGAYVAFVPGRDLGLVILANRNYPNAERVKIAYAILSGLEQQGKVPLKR
OXA-2 (Class D) β-lactamase, sequence (P0A1V9 22-275): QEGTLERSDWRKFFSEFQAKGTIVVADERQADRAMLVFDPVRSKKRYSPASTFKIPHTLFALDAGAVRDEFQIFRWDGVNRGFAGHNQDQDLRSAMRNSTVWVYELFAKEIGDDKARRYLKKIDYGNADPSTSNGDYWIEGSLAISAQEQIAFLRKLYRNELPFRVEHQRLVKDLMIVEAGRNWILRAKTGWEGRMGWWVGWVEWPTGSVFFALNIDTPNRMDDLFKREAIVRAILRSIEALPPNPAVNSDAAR
KPC (Class A) β-lactamase, sequence (Q9F663 25-293 limits assumed): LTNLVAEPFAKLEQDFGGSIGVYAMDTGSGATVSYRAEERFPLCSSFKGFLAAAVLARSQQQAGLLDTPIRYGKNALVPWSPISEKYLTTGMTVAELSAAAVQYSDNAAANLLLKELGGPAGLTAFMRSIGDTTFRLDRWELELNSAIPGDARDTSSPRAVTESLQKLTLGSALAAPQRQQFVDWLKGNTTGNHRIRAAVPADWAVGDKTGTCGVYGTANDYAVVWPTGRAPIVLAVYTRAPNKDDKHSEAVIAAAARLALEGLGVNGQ

As for `N=C(N)NOCCONC(=O)[C@@H]1CC[C@@H]2CN1C(=O)N2OS(=O)(=O)O` [Compound 1], the MIC is 8 µg/mL in assay [1]; above 128 µg/mL in [2]; 128 µg/mL in assay [3]; 128 µg/mL in assay [4]; above 128 µg/mL in assay [5]; above 128 µg/mL in assay [6]. In addition, the MIC in assay [7] was 128 µg/mL; in assay [8], above 128 µg/mL; in assay [9], above 128 µg/mL; in assay [10] it was above 128 µg/mL; in assay [11], above 128 µg/mL. The concentration for half-maximal inhibition (IC50) in assay [12] amounted to 20.2 nM; in [13] it was 98.6 nM; in [14], 31.9 nM; in [15], 43.1 nM; in [16] it was 1550 nM; in assay [17], 5000 nM. Further, the IC50 in assay [18] was 38.9 nM.
